Source: ChEMBL document CHEMBL1137248, “2-(3-Amino-3-deoxy-beta-D-xylofuranosyl)thiazole-4-carboxamide: a new tiazofurin analogue with potent antitumour activity” (Bioorg Med Chem Lett, 2006)

Experiments:
Format in all cases: cell-based
[1] = test system: MRC5; assay: Cytotoxicity against MRC5 cells after 24 hrs by MTT assay; settings: Homo sapiens, MRC5, 24 h
[2] = test system: K562; assay: Cytotoxicity against human K562 cells after 24 hrs by MTT assay; settings: K562, 24 h
[3] = test system: Jurkat; assay: Cytotoxicity against Jurkat cells after 24 hrs by MTT assay; settings: Homo sapiens
[4] = test system: HeLa; assay: Cytotoxicity against HeLa cells after 24 hrs by MTT assay; settings: Homo sapiens
[5] = test system: HT-29; assay: Cytotoxicity against HT29 cells after 24 hrs by MTT assay; settings: Homo sapiens, HT-29, 24 h

Row | SMILES | IC50 [1] [nM] | IC50 [2] [nM] | IC50 [3] [nM] | IC50 [4] [nM] | IC50 [5] [nM]
1 | NC(=O)c1csc([C@@H]2O[C@H](CO)[C@H](N)[C@H]2O)n1 | > 100000 | 52 | 60 | 280 | 37
2 | CC(=O)N[C@@H]1[C@@H](O)[C@H](c2nc(C(N)=O)cs2)O[C@@H]1CO | 89700 | 95 | 450 | > 100000 | 1000
3 | NC(=O)c1csc([C@@H]2O[C@H](CO)[C@@H](O)[C@H]2O)n1 [TIAZOFURIN] |  | 5290 | 140 | 4760 | 
